Counter-ions that a name gives are not always drawn.
Tests used:
Type in all cases: biochemical
recombinant human VAP-1 = target: T1, recombinant human VAP-1 (Homo sapiens, UniProt Q16853); test: Activity evaluation on recombinant human VAP-1 (Amplex Red/HRP-coupled hydrogen peroxide assay, benzylamine substrate); conditions: recombinant human VAP-1; 30 min preincubation at 37° C.; 1 mM benzylamine; read-out: Inhibitory Activity (IC50, nM) human VAP-1
T1 construct: purchased R&D systems
T1 sequence (Q16853 1-763): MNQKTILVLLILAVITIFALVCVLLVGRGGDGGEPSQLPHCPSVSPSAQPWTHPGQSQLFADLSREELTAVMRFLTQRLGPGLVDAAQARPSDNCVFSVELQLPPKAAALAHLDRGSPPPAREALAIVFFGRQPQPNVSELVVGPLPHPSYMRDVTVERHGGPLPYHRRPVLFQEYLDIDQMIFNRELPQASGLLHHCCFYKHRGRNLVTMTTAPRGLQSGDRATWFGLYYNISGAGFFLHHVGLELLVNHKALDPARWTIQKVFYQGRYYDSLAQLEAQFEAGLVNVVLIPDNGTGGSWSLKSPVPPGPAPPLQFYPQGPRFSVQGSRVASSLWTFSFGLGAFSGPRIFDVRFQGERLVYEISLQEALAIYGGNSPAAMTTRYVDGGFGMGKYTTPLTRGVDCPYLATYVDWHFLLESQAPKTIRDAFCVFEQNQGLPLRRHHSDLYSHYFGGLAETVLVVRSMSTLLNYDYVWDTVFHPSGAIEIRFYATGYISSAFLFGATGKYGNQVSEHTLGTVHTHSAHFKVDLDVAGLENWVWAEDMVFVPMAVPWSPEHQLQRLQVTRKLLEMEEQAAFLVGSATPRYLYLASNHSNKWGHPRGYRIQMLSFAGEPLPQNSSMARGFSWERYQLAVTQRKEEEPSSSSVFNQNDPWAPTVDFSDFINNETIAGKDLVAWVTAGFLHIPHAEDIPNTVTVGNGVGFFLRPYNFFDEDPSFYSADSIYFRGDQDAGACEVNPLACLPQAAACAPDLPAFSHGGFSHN
Method: (§1) The compounds according to the present technology were evaluated in terms of activity on recombinant human VAP-1 (R&D systems) by measuring the level of hydrogen peroxide in horseradish peroxidase (HRP)-coupled reaction using Amplex Red Hydrogen Peroxide Assay Kit (Molecular Probes, Invitrogen, USA). The experiment was carried out at room temperature using benzylamine as a substrate. In the HRP-coupled reaction, hydrogen peroxide oxidation of 10-acetyl-3,7-dihydroxyphenoxazine (Amplex Red reagent) produces resorufin, which is a highly fluorescent compound. Briefly, the test compound was dissolved in dimethyl sulfoxide (DMSO) at a concentration of 20 mM. The dose-response assessment was made by 1:3 serial dilution in DMSO, thereby creating a 8 point curve. The concentration of the upper part was controlled according to the efficacy of the compounds, followed by the dilution with a reaction buffer solution to obtain a final DMSO concentration of less than 1%. To each well of a 96 black well plate, human VAP-1 purified in 50 mM sodium phosphate buffer solution (pH7.4) was added. The test compounds dissolved in DMSO were incubated with the human VAP-1 enzymes at 37° C. for 30 minutes. After 30-minute incubation, each well was added with a reaction mixture containing 200 uM Amplex Red reagent prepared from 50 mM sodium phosphate buffer solution (pH 7.4), 1 mM benzylamine, and 1 U/mL HRP. Fluorescence intensity was measured at several time points during 1-2 hours using a microplate reader (Flexstation3, Molecular Devices) under the wavelength condition exciting at 544 nm and reading the emission at 590 nm. The inhibitory effect of the compounds was measured as a decrease (%) in the signal rate as compared to the control group without any inhibitor (only diluted DMSO). Data was fixed to a logistic model with four variables and IC50 value was calculated using GraphPad Prism program.

[1] = target: T2, recombinant human MAO-A (monoamine oxidase-A) (Homo sapiens, UniProt P21397); test: Activity evaluation on recombinant human MAO-A (Amplex Red/HRP-coupled assay, 0.5 mM tyramine substrate); conditions: 0.5 mM tyramine, read-out: Inhibitory Activity (IC50, nM) MAO-A
T2 construct: purchased Sigma-Aldrich
T2 sequence (P21397 1-527): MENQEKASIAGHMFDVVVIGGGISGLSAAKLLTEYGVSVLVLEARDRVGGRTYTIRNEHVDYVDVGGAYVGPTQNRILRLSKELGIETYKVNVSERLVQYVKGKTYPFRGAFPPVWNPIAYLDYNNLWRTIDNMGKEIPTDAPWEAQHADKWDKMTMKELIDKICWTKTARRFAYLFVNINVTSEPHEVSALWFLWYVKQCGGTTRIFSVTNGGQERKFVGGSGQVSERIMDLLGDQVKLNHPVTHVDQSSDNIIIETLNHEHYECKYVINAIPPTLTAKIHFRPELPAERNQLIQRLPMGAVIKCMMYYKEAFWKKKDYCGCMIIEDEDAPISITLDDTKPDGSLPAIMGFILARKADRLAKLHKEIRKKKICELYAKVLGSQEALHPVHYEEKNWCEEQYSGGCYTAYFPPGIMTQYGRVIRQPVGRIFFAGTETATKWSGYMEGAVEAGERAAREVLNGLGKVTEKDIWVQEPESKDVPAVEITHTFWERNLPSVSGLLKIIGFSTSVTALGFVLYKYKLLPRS
Method: as §1
(§2) In addition, the compounds according to the present technology were evaluated in terms of activity on a recombinant human MAO-A (monoamine oxidase-A, Sigma-Aldrich) and a recombinant human MAO-B (monoamine oxidase-B, Sigma-Aldrich) by using as substrates, 0.5 mM tyramine and 1 mM benzylamine, respectively, with a method similar to the activity evaluation method for recombinant human VAP-1. The compounds according to the present technology were also evaluated in terms of activity on a recombinant human DAO (diamine oxidase, R&D systems) by using as a substrate 1 mM putrescine with a method similar to the activity evaluation method for recombinant human VAP-1.

[2] = target: T3, recombinant human DAO (diamine oxidase) (Homo sapiens, UniProt P19801); test: Activity evaluation on recombinant human DAO (Amplex Red/HRP-coupled assay, 1 mM putrescine substrate); conditions: 1 mM putrescine, read-out: Inhibitory Activity (IC50, nM) DAO
T3 construct: purchased R&D systems
T3 sequence (P19801 20-751): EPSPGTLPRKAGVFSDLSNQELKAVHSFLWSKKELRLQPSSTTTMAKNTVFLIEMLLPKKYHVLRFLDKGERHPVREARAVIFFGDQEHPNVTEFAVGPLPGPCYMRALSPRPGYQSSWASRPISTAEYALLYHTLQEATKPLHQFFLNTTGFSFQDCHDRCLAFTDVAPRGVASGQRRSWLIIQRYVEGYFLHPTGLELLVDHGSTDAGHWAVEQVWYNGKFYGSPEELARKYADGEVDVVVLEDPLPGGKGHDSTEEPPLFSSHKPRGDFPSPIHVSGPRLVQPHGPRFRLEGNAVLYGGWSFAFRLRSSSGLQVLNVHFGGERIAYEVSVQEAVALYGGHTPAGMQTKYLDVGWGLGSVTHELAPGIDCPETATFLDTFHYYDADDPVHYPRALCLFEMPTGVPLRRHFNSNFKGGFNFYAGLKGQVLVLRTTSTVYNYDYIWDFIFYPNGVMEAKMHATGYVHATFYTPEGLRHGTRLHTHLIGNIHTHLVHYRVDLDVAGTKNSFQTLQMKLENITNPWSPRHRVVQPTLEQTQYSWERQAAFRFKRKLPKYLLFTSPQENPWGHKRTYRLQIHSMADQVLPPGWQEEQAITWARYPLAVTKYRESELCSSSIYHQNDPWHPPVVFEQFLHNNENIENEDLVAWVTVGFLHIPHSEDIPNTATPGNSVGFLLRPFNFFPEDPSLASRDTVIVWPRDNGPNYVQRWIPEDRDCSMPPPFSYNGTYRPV
Method: as §1, §2

[3] = target: T4, recombinant human MAO-B (monoamine oxidase-B) (Homo sapiens, UniProt P27338); test: Activity evaluation on recombinant human MAO-B (Amplex Red/HRP-coupled assay, 1 mM benzylamine substrate); conditions: 1 mM benzylamine, read-out: Inhibitory Activity (IC50, nM) MAO-B
T4 construct: purchased Sigma-Aldrich
T4 sequence (P27338 1-520): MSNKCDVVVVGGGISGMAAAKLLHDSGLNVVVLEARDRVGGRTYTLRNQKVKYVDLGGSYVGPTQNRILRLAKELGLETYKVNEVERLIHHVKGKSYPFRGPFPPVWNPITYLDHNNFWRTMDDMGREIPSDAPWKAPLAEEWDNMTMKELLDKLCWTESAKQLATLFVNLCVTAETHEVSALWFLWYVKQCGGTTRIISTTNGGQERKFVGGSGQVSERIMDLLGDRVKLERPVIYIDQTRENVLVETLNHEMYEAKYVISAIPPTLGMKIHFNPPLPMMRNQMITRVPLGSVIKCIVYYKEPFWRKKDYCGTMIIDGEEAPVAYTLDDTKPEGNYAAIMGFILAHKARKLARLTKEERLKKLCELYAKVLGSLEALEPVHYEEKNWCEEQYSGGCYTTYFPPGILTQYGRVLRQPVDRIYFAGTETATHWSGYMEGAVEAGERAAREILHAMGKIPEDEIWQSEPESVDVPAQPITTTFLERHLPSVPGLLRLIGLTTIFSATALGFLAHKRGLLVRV
Method: as §1, §2

| IC50 (recombinant human VAP-1) | IC50 [1] | IC50 [2] | IC50 [3] | Compound |
| --- | --- | --- | --- | --- |
| 2 nM | > 100000 nM | > 10000 nM | 39000 nM | NCC(Cn1ncn(-c2ccc(F)cc2)c1=O)=C(F)F [Example 1, 2-[2-(aminomethyl)-3,3-difluoro-allyl]-4-(4-fluorophenyl)-1,2,4-triazol-3-one Trifluoroacetate] |
| 6.2 nM | > 100000 nM | 46000 nM | > 100000 nM | NCC(Cn1ncn(-c2cccc(Br)c2)c1=O)=C(F)F [Example 2, 2-[2-(aminomethyl)-3,3-difluoro-allyl]-4-(3-bromophenyl)-1,2,4-triazol-3-one Trifluoroacetate] |
| 4 nM | > 100000 nM | 19000 nM | 25000 nM | NCC(Cn1ncn(-c2ccc(F)c(F)c2)c1=O)=C(F)F [Example 3, 2-[2-(aminomethyl)-3,3-difluoro-allyl]-4-(3,4-difluorophenyl)-1,2,4-triazol-3-one Trifluoroacetate] |
| 4.2 nM | > 100000 nM | 58000 nM | 2300 nM | NCC(Cn1ncn(-c2ccc(Br)c(F)c2)c1=O)=C(F)F [Example 4, 2-[2-(aminomethyl)-3,3-difluoro-allyl]-4-(4-bromo-3-fluoro-phenyl)-1,2,4-triazol-3-one Trifluoroacetate] |
| 2.5 nM | > 100000 nM | 67000 nM | 4900 nM | NCC(Cn1ncn(-c2ccc(Br)cc2F)c1=O)=C(F)F [Example 5, 2-[2-(aminomethyl)-3,3-difluoro-allyl]-4-(4-bromo-2-fluoro-phenyl)-1,2,4-triazol-3-one Trifluoroacetate] |
| 9.4 nM | > 100000 nM | > 100000 nM | > 100000 nM | Cc1cc(Br)ccc1-n1cnn(CC(CN)=C(F)F)c1=O [Example 6, 2-[2-(aminomethyl)-3,3-difluoro-allyl]-4-(4-bromo-2-methyl-phenyl)-1,2,4-triazol-3-one trifluoroacetate] |
| 9.4 nM | > 100000 nM | – | 6100 nM | NCC(Cn1ncn(-c2ccc(Br)nc2)c1=O)=C(F)F [Example 7, 2-[2-(aminomethyl)-3,3-difluoro-allyl]-4-(6-bromo-3-pyridyl)-1,2,4-triazol-3-one Trifluoroacetate] |
| 2.2 nM | > 100000 nM | 10500 nM | > 100000 nM | NCC(Cn1ncn(-c2cccc(Br)n2)c1=O)=C(F)F [Example 8, 2-[2-(aminomethyl)-3,3-difluoro-allyl]-4-(6-bromo-2-pyridyl)-1,2,4-triazol-3-one Trifluoroacetate] |
| 3.5 nM | > 100000 nM | 7100 nM | > 100000 nM | NCC(Cn1ncn(-c2cc(Br)ccn2)c1=O)=C(F)F [Example 9, 2-[2-(aminomethyl)-3,3-difluoro-allyl]-4-(4-bromo-2-pyridyl)-1,2,4-triazol-3-one Trifluoroacetate] |
| 7.7 nM | > 100000 nM | 1200 nM | > 100000 nM | NCC(Cn1ncn(-c2ccnc(Br)c2)c1=O)=C(F)F [Example 10, 2-[2-(aminomethyl)-3,3-difluoro-allyl]-4-(2-bromo-4-pyridyl)-1,2,4-triazol-3-one Trifluoroacetate] |
| 1.1 nM | > 100000 nM | > 100000 nM | 57000 nM | Cc1cc(Br)cnc1-n1cnn(CC(CN)=C(F)F)c1=O [Example 11, 2-[2-(aminomethyl)-3,3-difluoro-allyl]-4-(5-bromo-3-methyl-2-pyridyl)-1,2,4-triazol-3-one Trifluoroacetate] |
| 0.8 nM | > 100000 nM | 11000 nM | – | CN(C)c1ncc(-c2ccc(Cn3cnn(CC(CN)=C(F)F)c3=O)s2)cc1F [Example 115, 2-[2-(aminomethyl)-3,3-difluoro-allyl]-4-[[5-[6-(dimethylamino)-5-fluoro-3-pyridyl]-2-thienyl]methyl]-1,2,4-triazol-3-one Trifluoroacetate] |
| 0.7 nM | > 10000 nM | > 10000 nM | – | CN(C)c1ccc(C#Cc2ccc(Cn3cnn(CC(CN)=C(F)F)c3=O)s2)cn1 [Example 162, 2-[2-(aminomethyl)-3,3-difluoro-allyl]-4-[[5-[2-[6-(dimethylamino)-3-pyridyl]ethynyl]-2-thienyl]methyl]-1,2,4-triazol-3-one Trifluoroacetate] |

— patent publication US11168073B2, “3,3-difluoroallylamines or salts thereof and pharmaceutical compositions comprising the same” (YUHAN CORPORATION, priority 2018, dated 2021)
